pIC50: −log10 of the molar value.
Each compound was assayed on HCT116 (assay: In Vitro cytotoxicity measured by the cell colony formation assay). Conditions: Homo sapiens, HCT-116; read-out: IN VITRO ID 50 HCT116.
Type: cell-based, human
Method: Four hundred cells (HCT116) were plated in 60 mm Petri dishes containing 2.7 mL of medium (modified McCoy's 5a medium containing 10% fetal bovine serum and 100 units/mL penicillin and […] streptomycin). The cells were incubated in a CO2 incubator at 37 °C for 5 h for attachment to the bottom of Petri dishes. The compounds identified in Example 2 were made up fresh in medium at ten times the final concentration, and then 0.3 mL of this stock solution was added to the 2.7 mL of medium in the dish. The cells were then incubated with drugs for 72 h at 37 °C. At the end of incubation the drug-containing media were decanted, the dishes were rinsed with 4 mL of Hank's Balance Salt Solution (HBSS), 5 mL of fresh medium was added, and the dishes were returned to the incubator for colony formation. The cell colonies were counted using a colony counter after incubation for 7 days.

CC(=O)O[C@@]12CO[C@@H]1C[C@H](O)[C@@]1(C)C(=O)[C@H](OC(=O)c3ccco3)C3=C(C)[C@@H](OC(=O)[C@H](O)[C@@H](NC(=O)OC(C)(C)C)c4ccco4)C[C@@](O)([C@@H](OC(=O)c4ccccc4)[C@H]21)C3(C)C [Compound 2142] and CC(=O)O[C@@]12CO[C@@H]1C[C@H](O)[C@@]1(C)C(=O)[C@H](OC(=O)c3ccco3)C3=C(C)[C@@H](OC(=O)[C@H](O)[C@@H](NC(=O)OC(C)(C)C)c4cccs4)C[C@@](O)([C@@H](OC(=O)c4ccccc4)[C@H]21)C3(C)C [Compound 2164] cannot be ordered by pIC50: > 9.00 for the first, > 9.00 for the second.

CC(=O)O[C@@]12CO[C@@H]1C[C@H](O)[C@@]1(C)C(=O)[C@H](OC(=O)C=C(C)C)C3=C(C)[C@@H](OC(=O)[C@H](O)[C@@H](NC(=O)OC(C)(C)C)c4ccoc4)C[C@@](O)([C@@H](OC(=O)c4ccccc4)[C@H]21)C3(C)C [Compound 2499] and CC(=O)O[C@@]12CO[C@@H]1C[C@H](O)[C@@]1(C)C(=O)[C@H](OC(=O)c3cccs3)C3=C(C)[C@@H](OC(=O)[C@H](O)[C@@H](NC(=O)OC(C)(C)C)c4ccoc4)C[C@@](O)([C@@H](OC(=O)c4ccccc4)[C@H]21)C3(C)C [Compound 1923] cannot be ordered by pIC50: > 9.00 for the first, > 9.00 for the second.

CC(=O)O[C@@]12CO[C@@H]1C[C@H](O)[C@@]1(C)C(=O)[C@H](OC(=O)c3cccs3)C3=C(C)[C@@H](OC(=O)[C@H](O)[C@@H](NC(=O)OC(C)(C)C)c4ccc([N+](=O)[O-])cc4)C[C@@](O)([C@@H](OC(=O)c4ccccc4)[C@H]21)C3(C)C [Compound 1911] and CC(=O)O[C@@]12CO[C@@H]1C[C@H](O)[C@@]1(C)C(=O)[C@H](OC(=O)c3ccco3)C3=C(C)[C@@H](OC(=O)[C@H](O)[C@@H](NC(=O)OC(C)(C)C)c4ccsc4)C[C@@](O)([C@@H](OC(=O)c4ccccc4)[C@H]21)C3(C)C [Compound 2173] cannot be ordered by pIC50: > 8.00 for the first, > 9.00 for the second.

First: CCC(=O)O[C@H]1C(=O)[C@@]2(C)[C@H]([C@H](OC(=O)c3ccccc3)[C@]3(O)C[C@H](OC(=O)[C@H](O)[C@@H](NC(=O)c4ccccc4)c4cccnc4)C(C)=C1C3(C)C)[C@]1(OC(C)=O)CO[C@@H]1C[C@@H]2O [Compound 0647]
Second: CCCC(=O)O[C@H]1C(=O)[C@@]2(C)[C@H]([C@H](OC(=O)c3ccccc3)[C@]3(O)C[C@H](OC(=O)[C@H](O)[C@@H](NC(=O)c4ccccc4)C4CC4)C(C)=C1C3(C)C)[C@]1(OC(C)=O)CO[C@@H]1C[C@@H]2O [Compound 3482]
The pIC50 of the first is lower: 7.92 for the first, > 9.00 for the second. The second is the more potent here.

CCCC(=O)O[C@H]1C(=O)[C@@]2(C)[C@H]([C@H](OC(=O)c3ccccc3)[C@]3(O)C[C@H](OC(=O)[C@H](O)[C@@H](NC(=O)OCC(C)C)C4CC4)C(C)=C1C3(C)C)[C@]1(OC(C)=O)CO[C@@H]1C[C@@H]2O [Compound 4808] and CCC(=O)O[C@H]1C(=O)[C@@]2(C)[C@H]([C@H](OC(=O)c3ccccc3)[C@]3(O)C[C@H](OC(=O)[C@H](O)[C@@H](NC(=O)OCC(C)C)C4CC4)C(C)=C1C3(C)C)[C@]1(OC(C)=O)CO[C@@H]1C[C@@H]2O [Compound 4799] cannot be ordered by pIC50: > 8.00 for the first, > 9.00 for the second.

CC(=O)O[C@@]12CO[C@@H]1C[C@H](O)[C@@]1(C)C(=O)[C@H](OC(=O)c3ccco3)C3=C(C)[C@@H](OC(=O)[C@H](O)[C@@H](NC(=O)OC(C)(C)C)C(C)C)C[C@@](O)([C@@H](OC(=O)c4ccccc4)[C@H]21)C3(C)C [Compound 2181] and CC(=O)O[C@@]12CO[C@@H]1C[C@H](O)[C@@]1(C)C(=O)[C@H](OC(=O)c3ccco3)C3=C(C)[C@@H](OC(=O)[C@H](O)[C@@H](NC(=O)OC(C)(C)C)C4CCC4)C[C@@](O)([C@@H](OC(=O)c4ccccc4)[C@H]21)C3(C)C [Compound 2199] cannot be ordered by pIC50: > 8.00 for the first, > 8.00 for the second.

CCOC(=O)N[C@@H](c1cccs1)[C@@H](O)C(=O)O[C@H]1C[C@@]2(O)[C@@H](OC(=O)c3ccccc3)[C@@H]3[C@]4(OC(C)=O)CO[C@@H]4C[C@H](O)[C@@]3(C)C(=O)[C@H](OC(=O)C3CC3)C(=C1C)C2(C)C [Compound 4051] and CCOC(=O)N[C@@H](c1ccco1)[C@@H](O)C(=O)O[C@H]1C[C@@]2(O)[C@@H](OC(=O)c3ccccc3)[C@@H]3[C@]4(OC(C)=O)CO[C@@H]4C[C@H](O)[C@@]3(C)C(=O)[C@H](OC(=O)C3CC3)C(=C1C)C2(C)C [Compound 3677] cannot be ordered by pIC50: > 9.00 for the first, > 9.00 for the second.

CC(=O)OC12COC1CC(O)C1(C)C(=O)C(OC(=O)c3ccco3)C3=C(C)C(OC(=O)C(O)C(NC(=O)OC(C)(C)C)c4ccccc4)CC(O)(C(OC(=O)c4ccccc4)C21)C3(C)C (stereo not shown) [Compound 2212] and CC(=O)OC12COC1CC(O)C1(C)C(=O)C(OC(=O)C(C)C)C3=C(C)C(OC(=O)C(O)C(NC(=O)OC(C)(C)C)c4cccnc4)CC(O)(C(OC(=O)c4ccccc4)C21)C3(C)C (stereo not shown) [Compound 2242] cannot be ordered by pIC50: > 8.00 for the first, > 8.00 for the second.

CC(=O)O[C@@]12CO[C@@H]1C[C@H](O)[C@@]1(C)C(=O)[C@H](OC(=O)C3CC3)C3=C(C)[C@@H](OC(=O)[C@H](O)[C@@H](NC(=O)OCC(C)C)c4ccco4)C[C@@](O)([C@@H](OC(=O)c4ccccc4)[C@H]21)C3(C)C [Compound 3102] and CCCC(=O)O[C@H]1C(=O)[C@@]2(C)[C@H]([C@H](OC(=O)c3ccccc3)[C@]3(O)C[C@H](OC(=O)[C@H](O)[C@@H](NC(=O)OCC)c4ccco4)C(C)=C1C3(C)C)[C@]1(OC(C)=O)CO[C@@H]1C[C@@H]2O [Compound 3693] cannot be ordered by pIC50: > 9.00 for the first, > 9.00 for the second.

CCC(=O)O[C@H]1C(=O)[C@@]2(C)[C@H]([C@H](OC(=O)c3ccccc3)[C@]3(O)C[C@H](OC(=O)[C@H](O)[C@@H](NC(=O)OC(C)(C)C)c4ccncc4)C(C)=C1C3(C)C)[C@]1(OC(C)=O)CO[C@@H]1C[C@@H]2O [Compound 0521] and CCC(=O)O[C@H]1C(=O)[C@@]2(C)[C@H]([C@H](OC(=O)c3ccccc3)[C@]3(O)C[C@H](OC(=O)[C@H](O)[C@@H](NC(=O)OCC(C)C)c4ccsc4)C(C)=C1C3(C)C)[C@]1(OC(C)=O)CO[C@@H]1C[C@@H]2O [Compound 4711] cannot be ordered by pIC50: > 9.00 for the first, > 8.00 for the second.

CC(=O)O[C@@]12CO[C@@H]1C[C@H](O)[C@@]1(C)C(=O)[C@H](OC(=O)C3CC3)C3=C(C)[C@@H](OC(=O)[C@H](O)[C@@H](NC(=O)C=C(C)C)c4cccs4)C[C@@](O)([C@@H](OC(=O)c4ccccc4)[C@H]21)C3(C)C [Compound 4329] and CC=CC(=O)NC(c1ccoc1)C(O)C(=O)OC1CC2(O)C(OC(=O)c3ccccc3)C3C4(OC(C)=O)COC4CC(O)C3(C)C(=O)C(OC(=O)C3CC3)C(=C1C)C2(C)C (stereo not shown) [Compound 4944] cannot be ordered by pIC50: > 9.00 for the first, > 9.00 for the second.

CCCC(=O)O[C@H]1C(=O)[C@@]2(C)[C@H]([C@H](OC(=O)c3ccccc3)[C@]3(O)C[C@H](OC(=O)[C@H](O)[C@@H](NC(=O)OCC(C)C)c4ccsc4)C(C)=C1C3(C)C)[C@]1(OC(C)=O)CO[C@@H]1C[C@@H]2O [Compound 4834] and CC(=O)O[C@@]12CO[C@@H]1C[C@H](O)[C@@]1(C)C(=O)[C@H](OC(=O)C3CC3)C3=C(C)[C@@H](OC(=O)[C@H](O)[C@@H](NC(=O)OC(C)(C)C)C4CC4)C[C@@](O)([C@@H](OC(=O)c4ccccc4)[C@H]21)C3(C)C [Compound 0860] cannot be ordered by pIC50: > 8.00 for the first, > 9.00 for the second.

With CC(=O)O[C@@]12CO[C@@H]1C[C@H](O)[C@@]1(C)C(=O)[C@H](OC(=O)C3CC3)C3=C(C)[C@@H](OC(=O)[C@H](O)[C@@H](NC(=O)c4ccco4)c4ccco4)C[C@@](O)([C@@H](OC(=O)c4ccccc4)[C@H]21)C3(C)C [Compound 3866] the pIC50 was > 9.00.

— EP1285920A1, “C10 Ester sustituted taxanes as antitumor agents” (Florida State University Research Foundation, Inc., priority 2001, dated 2003)
